{"source": "patent US20120189673A1", "about": "“POLYPEPTIDES AND USES THEREOF” (priority 2009, published 2012)", "key": {"P. aeruginosa [1]": {"test_system": "P. aeruginosa", "assay": "Complement (C1q, C5b-9/MAC, C3a) binding to P. aeruginosa in citrate plasma (immunoblot, flow cytometry)", "format": "cell-based, Pseudomonas aeruginosa", "conditions": "citrate plasma with GGL27 at 3 μM", "description": "Flow cytometry analysis—Fifty μl of bacteria (1-2×10^6 cfu) were incubated with 450 μl of human plasma either alone or supplemented with GGL27 (at 3 μM). Samples were incubated for 30 min or 1 h at 37° C., divided into two equal parts, centrifuged, washed with PBS, and resuspended in 100 μl PBS with rabbit polyclonal antibodies against either LGE27 (25), a C-terminal epitope of human C3a, or rabbit polyclonal antibodies against C1q (both at 1:100). The mixtures were subsequently incubated for 1 h at room temperature. Bacteria were pelleted and washed twice with PBS, incubated in 100 μl PBS with goat anti rabbit IgG FITC-labeled antibodies (1:500, Sigma) for 30 min at room temperature and washed twice with PBS. In another experiment bacteria were incubated for 1 h in citrate plasma together with 3 μM TAMRA-labeled GGL27 peptide, then pelleted and washed twice with PBS. Flow cytometry analysis (Becton-Dickinson, Franklin Lakes, N.J.) was performed using a FACS-Calibur flow cytometry system equipped with a 15 mW argon laser turned a 488 nm. […]\nSDS-PAGE and immunoblotting—Human citrate plasma (450 μl) was incubated with 50 μl bacteria (1-2×10^9 cfu) either alone or supplemented with the peptide GGL27 at 3 μM. […] Precipitated material and supernatants were dissolved in SDS sample buffer and analyzed under reducing conditions by SDS-PAGE on 16.5% Tris-tricine gels (Clear PAGE™, C.B.S Scientific). […]"}, "[2]": {"test_system": "E. coli LPS shock in C57BL/6 mice", "assay": "LPS model in vivo (LPS-induced shock): survival, cytokines, lungs", "set-up": "species or system mouse", "description": "Histochemistry—For immunostaining, wound biopsies were fixed in 10% formalin, rehydrated and embedded in paraffin. Sections of 5 μm thickness were placed on poly-lysine coated glass slides, deparaffinized in xylene and rehydrated in graded alcohols. The slides were then treated with Dako antigen retrieval solution (Dako) for 40 min at 97° C., and incubated for 24 h at room temperature in a 1:50 dilution of polyclonal antibodies against TFPI (Sigma-Aldrich, in TBS with 1% BSA, 5% goat serum, 0.05% Tween 20). After three 20 min washes in TBS with 0.05% Tween 20, the sections were incubated with alkaline phosphatase conjugated secondary goat anti-rabbit IgG (Dako) diluted 1:1000 in the same buffer as the primary antibody and incubated for another 24 hours, followed by three 20 min washes. Sections were developed with Vulcan Fast Red chromogen (Biocare Medical, Concord, Calif.) and the slides were counterstained with Harris Hematoxylin (EM Science, Gibbstown, N.J.). For histological evaluation of lungs derived from the in vivo LPS-models in mice, tissues were embedded as above, sectioned and stained with hematoxylin and eosin by routine procedures (Histocenter, Gothenburg, Sweden).\nLPS model in vivo—Male C57BL/6 mice (8-10 weeks, 22+/−5 g), were injected intraperitoneally with 18 mg E. coli 0111:B4 LPS (Sigma) per kg of body weight. Thirty minutes after LPS injection, 0.5 mg GGL27, GGL27(S), DSE25 or buffer alone was injected intraperitoneally into the mice. Survival and status was followed during seven days. For blood collection and histochemistry, mice were sacrificed 20 h after LPS challenge, and lungs were removed and fixed. These experiments were approved by the Laboratory Animal Ethics Committee of Malmo/Lund.\nCytokine assay—The cytokines IL-6, IL-10, MCP-1, INF-γ, and TNF-α were measured in plasma from mice subjected to LPS (with or without peptide treatment) using the Cytometric bead array; mouse inflammation kit (Becton Dickinson AB) according to the manufacturer's instructions."}, "E. coli infected mice": {"test_system": "E. coli infected mice", "assay": "Animal infection model, E. coli", "format": "in vivo, mouse", "conditions": "E. coli i.p.; GGL27 200 μg i.p. after 30 min; P<0.001", "description": "Animal infection model—Animals were housed under standard conditions of light and temperature and had free access to standard laboratory chow and water. P. aeruginosa 15159 bacteria were grown to logarithmic phase (OD620˜0.5), harvested, washed in PBS, diluted in the same buffer to 2×10^8 cfu/ml, and kept on ice until injection. Hundred microliter of the bacterial suspension was injected intraperitoneally (i.p.) into female Balb/c mice. Sixty minutes after the bacterial injection, 0.5 mg GGL27 or buffer alone was injected subcutaneously (s.c.) into the mice. In a corresponding E. coli infection model, bacteria were grown to early logarithmic phase (OD620˜0.4), harvested, washed in PBS, diluted in the same buffer to 1×10^8 cfu/ml, and kept on ice until injection. Hundred microliter of the bacterial suspension was injected i.p. into female Balb/c mice. Thirty minutes after the bacterial injection, 0.2 mg of GGL27 peptide or buffer alone was injected i.p. Data from two independent experiments were pooled."}, "P. aeruginosa [3]": {"test_system": "P. aeruginosa", "assay": "FACS binding of TAMRA labeled peptide to P. aeruginosa", "set-up": "species or system Pseudomonas aeruginosa", "conditions": "3 μM TAMRA labeled peptide in human plasma", "description": "(§1) Flow cytometry analysis—Fifty μl of bacteria (1-2×10^6 cfu) were incubated with 450 μl of human plasma either alone or supplemented with GGL27 (at 3 μM). Samples were incubated for 30 min or 1 h at 37° C., divided into two equal parts, centrifuged, washed with PBS, and resuspended in 100 μl PBS with rabbit polyclonal antibodies against either LGE27 (25), a C-terminal epitope of human C3a, or rabbit polyclonal antibodies against C1q (both at 1:100). The mixtures were subsequently incubated for 1 h at room temperature. Bacteria were pelleted and washed twice with PBS, incubated in 100 μl PBS with goat anti rabbit IgG FITC-labeled antibodies (1:500, Sigma) for 30 min at room temperature and washed twice with PBS. In another experiment bacteria were incubated for 1 h in citrate plasma together with 3 μM TAMRA-labeled GGL27 peptide, then pelleted and washed twice with PBS. Flow cytometry analysis (Becton-Dickinson, Franklin Lakes, N.J.) was performed using a FACS-Calibur flow cytometry system equipped with a 15 mW argon laser turned a 488 nm. The bacterial population was selected by gating with appropriate settings of forward scatter (FSC) and sideward scatter (SSC)."}, "E. coli [4]": {"test_system": "E. coli", "assay": "Complement (C1q, C5b-9/MAC, C3a) binding to E. coli in citrate plasma (immunoblot, flow cytometry)", "format": "cell-based, Escherichia coli", "conditions": "citrate plasma with GGL27 at 3 μM", "description": "as §1\nSDS-PAGE and immunoblotting—Human citrate plasma (450 μl) was incubated with 50 μl bacteria (1-2×10^9 cfu) either alone or supplemented with the peptide GGL27 at 3 μM. The mixture was incubated for 30 min or 1 h at 37° C., centrifuged, and supernatants and bacteria collected. The bacterial pellet was washed with PBS and bound proteins eluted with 0.1 M glycine-HCl, pH 2.0. The pH of the eluted material was raised to 7.5 with 1 M Tris. Eluted proteins were precipitated by addition of 1 volume of trichloroacetic acid (TCA) to 4 volumes of sample, followed by incubation for 30 min on ice and centrifugation at 15 000 g (4° C. for 20 min). Precipitated material and supernatants were dissolved in SDS sample buffer and analyzed under reducing conditions by SDS-PAGE on 16.5% Tris-tricine gels (Clear PAGE™, C.B.S Scientific). Proteins and peptides were transferred to nitrocellulose membranes (Hybond-C). […]"}, "E. coli [5]": {"test_system": "E. coli", "assay": "FACS binding of TAMRA labeled peptide to E. coli", "set-up": "species or system Escherichia coli", "conditions": "3 μM TAMRA labeled peptide in human plasma", "description": "as §1"}, "[6]": {"conditions": "20 h after LPS injection, peptide 500 μg"}}, "note": "Entries after “also recorded” stand apart in the source; their conditions may differ."}
{"sequence": "GGLIKTKRKRKKQRVKIAYEEIFVKNM [GGL27, C-terminal peptide of TFPI, plasmin-generated]", "values": [{"measurement": "generation and binding of C3a-containing fragments to the bacterial surface", "setting": "P. aeruginosa [1]; FACS analysis", "result": "increased generation and binding of these C3a-containing fragments"}, {"measurement": "C1q/MAC alterations", "setting": "P. aeruginosa [1]", "result": "no significant C1q/MAC alterations"}, {"measurement": "inflammatory changes in lungs (histochemical analysis)", "setting": "[2]; 20 h after LPS injection, GGL27 500 μg", "result": "marked attenuation of inflammatory changes; also recorded: marked reduction of inflammation and vascular leakage"}, {"measurement": "IFN-γ in blood", "setting": "[2]; [6]", "result": "significant reductions"}, {"measurement": "IL-6 in blood", "setting": "[2]; [6]", "result": "significant reductions"}, {"measurement": "IL-10 in blood", "setting": "[2]; [6]", "result": "increased"}, {"measurement": "MCP-1 in blood", "setting": "[2]; [6]", "result": "significant reductions"}, {"measurement": "TNF-α in blood", "setting": "[2]; [6]", "result": "significant reductions"}, {"measurement": "overall (proinflammatory) cytokine release", "setting": "[2]; [6]", "result": "attenuates proinflammatory cytokines"}, {"measurement": "survival", "setting": "[2]; E. coli LPS i.p., peptide 500 μg i.p. 30 minutes after, followed 7 days", "result": "significantly increased survival"}, {"measurement": "anti-endotoxic effects in vivo", "setting": "[2]; mouse model of LPS-shock", "result": "anti-endotoxic effects"}, {"measurement": "survival", "setting": "E. coli infected mice", "result": "prolongs survival; also recorded: prolongation of survival"}, {"measurement": "binding to bacteria", "setting": "P. aeruginosa [3]", "result": "avidly bound"}, {"measurement": "binding of C1q to bacteria", "setting": "E. coli [4]", "result": "enhances; also recorded: enhanced binding of C1q"}, {"measurement": "formation of MAC", "setting": "E. coli [4]", "result": "enhances; also recorded: increased formation of MAC"}, {"measurement": "generation / binding of C3a", "setting": "E. coli [4]", "result": "enhances; also recorded: significant generation of C3a"}, {"measurement": "binding to bacteria", "setting": "E. coli [5]", "result": "avidly bound"}]}
